Measured values taken from US20230174523A1, “BENZENESULFONAMIDE DERIVATIVES AS TRAP1 MODULATORS AND USES THEREOF” (Amathus Therapeutics, Inc., priority 2020, published 2023).

How the values were obtained:
Format in all cases: cell-based
[1] = system: primary rat TH+ dopaminergic neurons; experiment: ROS production in primary TH+ dopaminergic neurons injured with MPP+; settings: injury with MPP+ (4 μM, 4 h); FIG. 6
Protocol: (§1) Rat dopaminergic neurons were cultured as described by Visanji et al., 2008. Briefly, pregnant female rat of 15 days of gestation are sacrificed using a deep anesthesia with CO2 chamber and a cervical dislocation. The midbrains obtained from 15-day-old rat embryos are dissected under a microscope. The embryonic midbrains are removed and placed in ice-cold medium of Leibovitz (L15) containing 2% of Penicillin-Streptomycin (PS) and 1% of bovine serum albumin (BSA). The ventral portion of the mesencephalic flexure, a region of the developing brain rich in dopaminergic neurons, is used for the cell preparations.
The midbrains are dissociated by trypsinisation for 20 min at 37° C. (solution at a final concentration of 0.05% trypsin and 0.02% EDTA). […] Viable cells are counted in a Neubauer cytometer using the trypan blue exclusion test. […] Six wells per condition are assessed. […]
(§2) For each condition, 20 pictures at 10× magnification (plate 1) or 30 pictures at 20× magnification (representing the whole well area) were automatically taken using ImageXpress®. […] The following read-outs were measured: Analysis of total number of TH neurons (TH positive neuron number), Analysis of the ROS into TH positive neurons, Analysis of caspase 3 positive TH neurons, and Analysis of total neurite network of TH positive neurons (in μm).
(§3) All values are expressed as mean+/−SEM (standard error of the mean). […]

[2] = system: primary rat TH+ dopaminergic neurons; experiment: Survival, neurite network, CytC release and aSyn aggregation of TH+ dopaminergic neurons injured with MPP+
Protocol: as §1
The midbrains are dissociated by trypsinisation for 20 min at 37° C. (solution at a final concentration of 0.05% trypsin and 0.02% EDTA). […] Viable cells are counted in a Neubauer cytometer using the trypan blue exclusion test. […] Six wells per condition are assessed.
as §2, §3

mIMCD3 Pkd1−/− cells = experiment: Mouse cell derived cyst assay; settings: PKD KO mouse cell derived cyst forming assay; FIG. 13
Protocol: Mouse cell derived cyst assays were performed as described in Booij, Tijmen H et al., SLAS discovery: advancing life sciences R & D vol. 22.8 (2017): 974-984, or as described below.
Murine inner medullary collecting duct cell line (mIMCD3 Pkd1^−/− cells) • mIMCD3 Pkd1 KO cells were seeded in 384 wells plates in extracellular matrix. • 4 days after seeding, cultures were co-exposed to treatments and stimuli (2.5 μM forskolin); • After 72 h, cultures were fixed, stained for nuclei and actin cytoskeleton and imaged with 4× magnification; and • Image analysis of the 3D stack was done using Ominer™ image analysis software.

Cc1nn(C)c2sc(C(=O)Nc3ccc(F)c(S(=O)(=O)Nc4ccc(Cl)cc4)c3)cc12 [Compound 705]
reactive oxygen species (ROS) production [1]: reduction of ROS
neurite network of TH+ dopaminergic neurons ([2]; injury with MPP+ (4 μM, 24 h), FIG. 8): protection of the neurite network
neurite network of TH+ dopaminergic neurons ([2]; injury with MPP+ (4 μM, 48 h), FIG. 11): protection of neurite network
cyst formation (mIMCD3 Pkd1−/− cells): preventing cyst formation
